Reference: patent US20250325552A1, “SUBSTITUTED THIADIAZOLYL DERIVATIVES AS DNA POLYMERASE THETA INHIBITORS” (IDEAYA Biosciences, Inc., priority 2020, published 2025)

biological target: Polθ theta (1-899) (hPolQ) (Homo sapiens (Human), UniProt O75417); assay: Biological Assay 1: Polθ ATPase activity, NADH oxidation-coupled enzymatic assay (10 nM enzyme, 30 min); format: biochemical; details: Polθ (1-899) 10 nM, 100 μM ATP, 300 nM dT50 ssDNA; Examples 1 to 268; read-out: ATPase NADH coupling:Standard Screening:hPolQ IC50
Sequence (O75417 1-899): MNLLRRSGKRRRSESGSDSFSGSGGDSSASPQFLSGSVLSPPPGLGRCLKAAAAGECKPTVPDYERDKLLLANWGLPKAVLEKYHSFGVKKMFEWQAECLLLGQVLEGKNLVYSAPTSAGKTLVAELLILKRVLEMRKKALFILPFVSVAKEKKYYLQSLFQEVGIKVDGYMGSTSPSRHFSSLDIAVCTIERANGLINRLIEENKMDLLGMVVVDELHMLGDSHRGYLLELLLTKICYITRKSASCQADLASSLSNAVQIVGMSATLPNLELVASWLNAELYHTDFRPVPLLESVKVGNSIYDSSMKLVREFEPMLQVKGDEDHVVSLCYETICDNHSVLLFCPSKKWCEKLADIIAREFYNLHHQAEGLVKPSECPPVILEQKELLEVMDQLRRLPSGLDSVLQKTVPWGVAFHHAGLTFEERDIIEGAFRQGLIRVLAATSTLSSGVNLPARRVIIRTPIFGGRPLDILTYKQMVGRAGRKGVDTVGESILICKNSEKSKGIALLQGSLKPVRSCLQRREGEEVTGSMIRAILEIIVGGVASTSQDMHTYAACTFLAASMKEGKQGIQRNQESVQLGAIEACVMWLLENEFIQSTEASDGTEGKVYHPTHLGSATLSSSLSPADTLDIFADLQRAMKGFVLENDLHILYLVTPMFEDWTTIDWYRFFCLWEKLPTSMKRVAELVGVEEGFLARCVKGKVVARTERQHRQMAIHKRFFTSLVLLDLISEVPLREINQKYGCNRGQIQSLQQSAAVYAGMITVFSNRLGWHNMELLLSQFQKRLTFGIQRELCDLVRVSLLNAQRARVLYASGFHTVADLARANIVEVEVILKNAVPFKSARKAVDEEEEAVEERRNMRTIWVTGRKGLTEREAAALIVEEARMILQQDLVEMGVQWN
How it was run: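 Polθ (1-899) at 10 nM was preincubated with compound for 15 min at room temperature in 20 mM Tris pH 7.80, 80 mM KCl, 10 mM MgCl2. An equal volume of 100 μM ATP, 300 nM dT50 ssDNA and a PK/LDH–NADH coupling system was then added. A340 was read each minute for 30 min. IC50 came from rate slopes over 10-point series with a four-parameter fit.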

Compound | IC50 [nM]
COc1cnc(Cl)cc1-c1cc(C)ncc1C(=O)Nc1nnc(OC[C@H]2CC[C@](C)(O)CC2)s1 [Example 214, 2′-chloro-N-(5-(((1r,4r)-4-hydroxy-4-methylcyclohexyl)methoxy)-1,3,4-thiadiazol-2-yl)-5′-methoxy-6-methyl-(4,4′-bipyridine)-3-carboxamide] | ≤ 200
COc1cnc(Cl)cc1-c1cc(C)ncc1C(=O)Nc1nnc(OC[C@H]2CC[C@@](C)(O)CC2)s1 [Example 215, 2′-chloro-N-(5-(((1s,4s)-4-hydroxy-4-methylcyclohexyl)methoxy)-1,3,4-thiadiazol-2-yl)-5′-methoxy-6-methyl-(4,4′-bipyridine)-3-carboxamide] | ≤ 200
COCc1cc(-c2cc(Cl)ncc2OC)c(C(=O)Nc2nnc(OC[C@@H]3COCCO3)s2)cn1 [Example 216, (S)—N-(5-((1,4-dioxan-2-yl)methoxy)-1,3,4-thiadiazol-2-yl)-2′-chloro-5′-methoxy-6-(methoxymethyl)-(4,4′-bipyridine)-3-carboxamide] | ≤ 200
COc1cnc(C)c(F)c1-c1cc(C)ncc1C(=O)Nc1nnc(OCC23CCC(O)(CC2)C3)s1 [Example 217, 3′-fluoro-N-(5-((4-hydroxybicyclo(2.2.1)heptan-1-yl)methoxy)-1,3,4-thiadiazol-2-yl)-5′-methoxy-2′,6-dimethyl-(4,4′-bipyridine)-3-carboxamide] | ≤ 200
COc1cnc(Cl)cc1-c1cc(C)ncc1C(=O)Nc1nnc(OCC23CCC(O)(CC2)C3)s1 [Example 218, 2′-chloro-N-(5-((4-hydroxybicyclo(2.2.1)heptan-1-yl)methoxy)-1,3,4-thiadiazol-2-yl)-5′-methoxy-6-methyl-(4,4′-bipyridine)-3-carboxamide] | ≤ 200
COc1cnc(C)c(F)c1-c1cc(C)ncc1C(=O)Nc1nnc(OCC23CCC(O)(CC2)CC3)s1 [Example 219, 3′-fluoro-N-(5-((4-hydroxybicyclo(2.2.2)octan-1-yl)methoxy)-1,3,4-thiadiazol-2-yl)-5′-methoxy-2′,6-dimethyl-(4,4′-bipyridine)-3-carboxamide] | ≤ 200
COc1cnc(Cl)cc1-c1cc(C)ncc1C(=O)Nc1nnc(OCC2COC3(CCC3)C2)s1 (stereo not shown) [Example 224, N-(5-((5-oxaspiro(3.4)octan-7-yl)methoxy)-1,3,4-thiadiazol-2-yl)-2′-chloro-5′-methoxy-6-methyl-(4,4′-bipyridine)-3-carboxamide] | ≤ 200
COc1cnc(Cl)cc1-c1cc(C)ncc1C(=O)Nc1nnc(OCC2COC3(COC3)C2)s1 (stereo not shown) [Example 225, N-(5-((2,5-dioxaspiro(3.4)octan-7-yl)methoxy)-1,3,4-thiadiazol-2-yl)-2′-chloro-5′-methoxy-6-methyl-(4,4′-bipyridine)-3-carboxamide] | ≤ 200
COc1cnc(Cl)cc1-c1cc(C)ncc1C(=O)Nc1nnc(OCC2COC(C)(C)CO2)s1 (stereo not shown) [Example 228, 2′-chloro-N-(5-((5,5-dimethyl-1,4-dioxan-2-yl)methoxy)-1,3,4-thiadiazol-2-yl)-5′-methoxy-6-methyl-(4,4′-bipyridine)-3-carboxamide] | ≤ 200
COc1cnc(Cl)cc1-c1cc(C)ncc1C(=O)Nc1nnc(OCC23COC(C2)C3)s1 [Example 229, N-(5-((2-oxabicyclo(2.1.1)hexan-4-yl)methoxy)-1,3,4-thiadiazol-2-yl)-2′-chloro-5′-methoxy-6-methyl-(4,4′-bipyridine)-3-carboxamide] | ≤ 200
COc1cnc(Cl)cc1-c1cc(COC2CC2)ncc1C(=O)Nc1nnc(OC[C@H]2CC[C@H](O)CC2)s1 [Example 232, 2′-chloro-6-(cyclopropoxymethyl)-N-(5-(((1r,4r)-4-hydroxycyclohexyl)methoxy)-1,3,4-thiadiazol-2-yl)-5′-methoxy-(4,4′-bipyridine)-3-carboxamide] | ≤ 200
Cc1cc(-c2cc(Cl)ncc2OC(F)F)c(C(=O)Nc2nnc(OC[C@@H]3COCCO3)s2)cn1 [Example 233, (S)—N-(5-((1,4-dioxan-2-yl)methoxy)-1,3,4-thiadiazol-2-yl)-2′-chloro-5′-(difluoromethoxy)-6-methyl-(4,4′-bipyridine)-3-carboxamide] | ≤ 200
Cc1cc(-c2cc(Cl)ncc2OC(F)F)c(C(=O)Nc2nnc(OC[C@H]3COCCO3)s2)cn1 [Example 234, (R)—N-(5-((1,4-dioxan-2-yl)methoxy)-1,3,4-thiadiazol-2-yl)-2′-chloro-5′-(difluoromethoxy)-6-methyl-(4,4′-bipyridine)-3-carboxamide] | ≤ 200
COc1cnc(Br)cc1-c1cc(C)ncc1C(=O)Nc1nnc(OC[C@@H]2COCCO2)s1 [Example 235, (S)—N-(5-((1,4-dioxan-2-yl)methoxy)-1,3,4-thiadiazol-2-yl)-2′-bromo-5′-methoxy-6-methyl-(4,4′-bipyridine)-3-carboxamide] | ≤ 200
COc1cnc(Br)cc1-c1cc(C)ncc1C(=O)Nc1nnc(OC[C@H]2COCCO2)s1 [Example 236, (R)—N-(5-((1,4-dioxan-2-yl)methoxy)-1,3,4-thiadiazol-2-yl)-2′-bromo-5′-methoxy-6-methyl-(4,4′-bipyridine)-3-carboxamide] | ≤ 200
COc1cnc(Cl)c(F)c1-c1cc(C)ncc1C(=O)Nc1nnc(OC[C@@H]2COCCO2)s1 [Example 239, N-(5-(((S)-1,4-dioxan-2-yl)methoxy)-1,3,4-thiadiazol-2-yl)-2′-chloro-3′-fluoro-5′-methoxy-6-methyl-(4,4′-bipyridine)-3-carboxamide] | ≤ 200
COc1cnc(Cl)c(F)c1-c1cc(C)ncc1C(=O)Nc1nnc(OC[C@H]2COCCO2)s1 [Example 240, N-(5-(((R)-1,4-dioxan-2-yl)methoxy)-1,3,4-thiadiazol-2-yl)-2′-chloro-3′-fluoro-5′-methoxy-6-methyl-(4,4′-bipyridine)-3-carboxamide] | ≤ 200
COc1cnc(C)c(F)c1-c1cc(C)ncc1C(=O)Nc1nnc(OC[C@H]2COCCO2)s1 [Example 242, N-(5-(((R)-1,4-dioxan-2-yl)methoxy)-1,3,4-thiadiazol-2-yl)-3′-fluoro-5′-methoxy-2′,6-dimethyl-(4,4′-bipyridine)-3-carboxamide] | ≤ 200
Cc1cc(-c2cc(Cl)ncc2OC(F)F)c(C(=O)Nc2nnc(OC[C@H]3CC[C@H](O)CC3)s2)cn1 [Example 243, 2′-chloro-5′-(difluoromethoxy)-N-(5-(((1r,4r)-4-hydroxycyclohexyl)methoxy)-1,3,4-thiadiazol-2-yl)-6-methyl-(4,4′-bipyridine)-3-carboxamide] | ≤ 200
COc1cnc(Cl)cc1-c1cc(C)ncc1C(=O)Nc1nnc(OCC2COC(CO)CO2)s1 (stereo not shown) [Example 246, 2′-chloro-N-(5-((5-(hydroxymethyl)-1,4-dioxan-2-yl)methoxy)-1,3,4-thiadiazol-2-yl)-5′-methoxy-6-methyl-(4,4′-bipyridine)-3-carboxamide] | ≤ 200
COc1cnc(Br)cc1-c1cc(C)ncc1C(=O)Nc1nnc(OC[C@H]2CC[C@H](O)CC2)s1 [Example 247, 2′-bromo-N-(5-(((1r,4r)-4-hydroxycyclohexyl)methoxy)-1,3,4-thiadiazol-2-yl)-5′-methoxy-6-methyl-(4,4′-bipyridine)-3-carboxamide] | ≤ 200
COc1cnc(Cl)c(F)c1-c1cc(C)ncc1C(=O)Nc1nnc(OC[C@H]2CC[C@H](O)CC2)s1 [Example 248, 2′-chloro-3′-fluoro-N-(5-(((1r,4r)-4-hydroxycyclohexyl)methoxy)-1,3,4-thiadiazol-2-yl)-5′-methoxy-6-methyl-(4,4′-bipyridine)-3-carboxamide] | ≤ 200
